# Laboratory results from patent US20100255099A1, “CLAVULANATE FORMULATION FOR NEUROPROTECTION AND TREATMENT OF NEURODEGENERATIVE DISORDERS” (REXAHN PHARMACEUTICALS, INC., priority 2007, published 2010).
# Entries after “also recorded” stand apart in the source; their conditions may differ. Like-named read-outs stand apart in the source and are kept apart here.
# Legend:
# [1] = Stability of clavulanate during moisture removal after wet granulation; assay type: physicochemical
# Procedure: Potassium clavulanate is an exceptionally difficult material to formulate, being extremely moisture and heat sensitive. Degradation readily occurs in the presence of water and aqueous media. Several methods were tested to find a suitable condition for removing moisture after wet granulation that keeps the active ingredient clavulanate intact. The material in sample C was prepared by wet granulation and spheronized. The moisture containing spheronized formulation was transferred to trays and subjected to different storage conditions for the removal of moisture.
# Lyophilization retained 97% of the active ingredient after 21 hrs of the freeze drying process.
# [2] = tested on: TH-positive neurons in the substantia nigra pars compacta (SNpc); test: Tyrosine hydroxylase immunohistochemistry in MPTP model; assay type: in vivo, C57BL/6 mice; conditions: for TH-positive (TH-IR) neurons within the SNpc: clavulanate treated groups (ip and ga) compared to MPTP-saline group
# Procedure: The neuroprotectant effects of clavulanate was tested in an MPTP (1-methyl-4-phenyl-1,2,3,6-tetrahydropyridine) induced Parkinson's disease animal model. Eight week old male C57BL/6 mice were separated into six groups of ten. Three times (one time per day) prior to MPTP treatment, ten animals were treated with clavulanate at a particular dose and route of administration (Groups 2-5) while the remaining animals (groups 1 and 6) were given saline vehicle. (See Table 13.) MPTP was given four times intraperitoneally at a dose of 20 mg/kg (total of 80 mg/kg). Two times (one time per day) post MPTP treatment, animals were given another administration of clavulanate or saline vehicle. Animals were tested for changes in behavior. Animals that survived MPTP treatment were sacrificed 7 days later and their brains examined for histological changes in the substantia nigra pars compacta (SNpc). Ten untreated control animals of the same weight and age as the experimental animals were sacrificed and their hippocampal morphology used as a standard for comparison.
# (§1) On completion of the experiment, animals were anesthetized by IP injection of 10 mg/kg pentobarbital sodium, then perfused transcardially with 10 ml of PBS at pH 7.4, follow by 50 ml of 4% paraformaldehyde in PBS over a 5 min period. The brains were removed from the skull and post-fixed by immersion in the same fixative solution for 4 h, then transferred to 30% sucrose in PBS. After equilibration in the sucrose solution, coronal sections were cut using the cryocut at a thickness of 40 μm into storing solution and stored at 4° C. prior to staining.
# Immunohistochemistry was carried out on free floating sections. All stains were carried out on a 1 in 5 series of sections. All sections were stained simultaneously using the same solutions of antibodies and ensuring that incubation times and washes were the same for each brain. […]
# Neurons were counted using the optical fractionator, an unbiased method for cell counting that is not affected by either the volume of reference or the size of the counted elements (neurons). […]
# Kainate animal model = test: Kainate animal model: seizure and survival; assay type: in vivo, Sprague Dawley rats
# Procedure: (§2) As a neuroprotectant, clavulanate was tested in the Kainate animal model. Thirty male Sprague Dawley rats weighing 300-350 grams were separated into three groups. One hour prior to kainate treatment, seven animals are treated with clavulanate at an IP dose of 10 μg/kg while the remaining animals were given saline vehicle. Kainate was given IP at a dose of 20 mg/kg to the seven clavulanate treated animals and 13 saline vehicle treated animals. […] Sixty minutes post kainate treatment the animals were given another IP injection (10 μg/kg) of clavulanate or saline vehicle. Animals that survived kainate treatment were sacrificed seven days later and their brains examined for histological changes in the hippocampus. Ten untreated control animals of the same weight and age as the experimental animals were sacrificed and their hippocampal morphology used as a standard for comparison.
# [3] = tested on: cresyl violet positive neurons in the hippocampal CA3 region; test: Kainate animal model: cresyl violet staining of hippocampus; assay type: in vivo, Sprague Dawley rats
# Procedure: as §2
# as §1, with “with 100” for “with 10”, “by 250” for “by 50”, “staining. All stains are carried out on a 1 in 5 series of sections. […]” for “staining.”
# To evaluate the effects of clavulanate against kainate induced neuronal damage, the measurement of neuronal number was performed using an image analyzing system equipped with a computer-based CCD camera (Multiscan, Fullerton, Calif.). The number of cresyl violet positive neurons was counted in a 1 mm diameter of hippocampus in five sections per animal. […] Data are expressed as the mean±SEM. The data were evaluated by a one-way ANOVA SPSS program and the means assessed using Duncan's multiple-range test. […]
# [4] = administered i.p. at less than 1 μg/kg; cited from earlier work
# [5] = rats, i.p. dose of 1 μg/kg; cited from earlier work
# [6] = doses ranging from 10 ng to 10 μg/kg (i.p.); cited from earlier work
# [7] = Moisture sorption of potassium clavulanate powder at different relative humidity; assay type: physicochemical; conditions: for Moisture Content (%) (g H2O/g dry solid) / Moisture Content (%) (g H2O/g wet solid): 96 hr
# Procedure: Potassium clavulanate in its solid form is both hygroscopic and unstable in the presence of water vapor. A stability study of clavulanate was conducted with monitoring by chromatographic methods. The static or equilibrium approach was approached by storing samples in chambers at different relative humidity in an attempt to generate a sorption isotherm. The sorption isotherm represents the quantitative relationship between the equilibrium moisture content and relative humidity (RH) in the atmosphere.
# [8] = Pharmacokinetic study in beagle dogs; assay type: in vivo; conditions: dog, plasma; for Vd: iv, 4.2 mg
# Procedure: The amount of clavulanate in the plasma of beagle dogs was measured by LC/MS/MS method. The chromatographic separation of the analytes was performed on a reverse-phase PLRP-S polymeric column. The retention time of potassium clavulanate and tazobactam (reference compound) were 8.51 and 8.54 min, respectively. The overall chromatographic run time was 25 min. The M/S analysis was performed on an Applied Biosystems' API 2000 triple-quardrupole mass spectrometer by multiple reaction monitoring in negative electrospray ionization mode. The mass spectral data were analyzed by Analyst 1.4.1 (Applied Biosystems). The pharmacokinetic analysis was conducted by using PK Solutions 2.0 (Summit Research Services).
# Three male Beagle dogs were used throughout the study in a cross-over design with washout period between treatments. […] The animals were fasted overnight before the administration of the test substance and fed 4 hr post-dosing. During all the treatments, blood samples (1.5 ml) were withdrawn from the cephalic vein by venipuncture into heparinized tubes at 0, 5, 15, 30 min, 1, 1.5, 2, 2.5, 3, 4, 6, 9 and 12 hr after dosing. Plasma was obtained via centrifugation at 3,000 rpm for 10 min and analyzed by an LC-MS/MS system.
# Three male beagle dogs were used throughout the study in a cross-over design with washout period between treatments. The dogs were given the test substances as aqueous solution via intravenous routes with no shorter than 24 hr washout period between dosing. The animals were fasted overnight before the administration of the test substance and fed 4 hr post-dosing. During all the treatments, blood samples (1.5 ml) were withdrawn from the cephalic vein by venipuncture into heparinized tubes at 0, 5, 15, 30 min, 1, 1.5, 2, 2.5, 3, 4, 6, 9 and 12 hr after dosing. Plasma was obtained via centrifugation at 3,000 rpm for 10 min and analyzed by an LC-MS/MS system.
# Four male beagle dogs were used throughout the study in a cross-over design with washout period between treatments. The dogs were given the test substances as ER tablet of Example 3C via oral routes with no shorter than 24 hr washout period between dosing. The animals were fasted overnight before the administration of the test substance and fed 4 hr post-dosing. During all the treatments, blood samples (1.5 ml) were withdrawn from the cephalic vein by venipuncture into heparinized tubes at 1, 2, 3, 4, 5, 6, 7, 8, 9, 10, 11 and 12 hr after dosing. Plasma was obtained via centrifugation at 3,000 rpm for 10 min and analyzed by an LC-MS/MS system.
# [9] = compared to controls given saline only
# [10] = IV aqueous solution, dose 4.2 mg, male beagle dogs
smiles,measurement,setting,value
O=C(O)[C@H]1/C(=C/CO)O[C@@H]2CC(=O)N21 [clavulanate],Clavulanate (%),"[1]; Freeze dry: sub-zero, 21 hr",97%
same,degradation,"[1]; drying in a fluid bed system, 1.5 hr",13%
same,TH-positive (TH-IR) neurons within the SNpc,[2],significantly protected; also recorded: preservation
same,TH-positive (TH-IR) neurons within the SNpc,[2]; listed as Clavulanate,well preserved
same,"protection of TH-positive SNpc neurons, gavage versus ip",[2]; following gavage treatment,greater protection
same,onset to seizure,Kainate animal model; [9],longer onset to seizure
same,seizure activity,Kainate animal model; [9],mild seizure activity
same,Survival rate (%),"Kainate animal model; kainate 20 mg/kg IP, clavulanate 10 μg/kg IP 1 hr before and 60 min after kainate",100%
same,Seizure rate,"Kainate animal model; seizure rating scale (Sperk et al., 1983), 60-120 min after kainate treatment",0-1
same,fatality,Kainate animal model; within 24 hrs of kainate treatment,no fatality
same,pyramidal neurons positive to cresyl violet,"[3]; CA3 stratum pyramidale, 7 days after kainate, compared to the normal group",88.7%
same,morphology of neurons in CA3,[3]; compared to animals treated with kainate-saline,normal morphology
same,neuroprotective effect on kainate induced hippocampal cell death (CA3 region),[3]; kainate treated rats,strong neuroprotective effect; also recorded: significant neuroprotective effect
O=C(O)[C@H]1/C(=C/CO)O[C@@H]2CC(=O)N21 [clavulanic acid],anxiolytic activity,[4],anxiolytic activity
same,neuroprotectant activity,[5],potent neuroprotectant activity
same,CNS activity and behavior,[6],alter CNS activity and behavior
O=C(O)[C@H]1/C(=C/CO)O[C@@H]2CC(=O)N21 [potassium clavulanate],humidity above which deliquescence would eventually occur,[7],above 40 % relative humidity
same,Moisture Content (%) (g H2O/g dry solid),[7]; 33% RH,0.713%
same,Moisture Content (%) (g H2O/g wet solid),[7]; 33% RH,0.708%
same,Moisture Content (%) (g H2O/g dry solid),[7]; 35% RH,0.737%
same,Moisture Content (%) (g H2O/g wet solid),[7]; 35% RH,0.733%
same,Moisture Content (%) (g H2O/g dry solid),[7]; 37% RH,0.848%
same,Moisture Content (%) (g H2O/g wet solid),[7]; 37% RH,0.842%
same,Moisture Content (%) (g H2O/g dry solid),[7]; 39% RH,1.280%
same,Moisture Content (%) (g H2O/g wet solid),[7]; 39% RH,1.264%
same,Moisture Content (%) (g H2O/g dry solid),[7]; 41% RH,1.566%
same,Moisture Content (%) (g H2O/g wet solid),[7]; 41% RH,1.542%
same,Moisture Content (%) (g H2O/g dry solid),[7]; 43% RH,4.140%
same,Moisture Content (%) (g H2O/g wet solid),[7]; 43% RH,3.976%
same,Moisture Content (%) (g H2O/g dry solid),[7]; 45% RH,5.018%
same,Moisture Content (%) (g H2O/g wet solid),[7]; 45% RH,4.778%
same,Moisture Content (%) (g H2O/g dry solid),[7]; 47% RH,14.708%
same,Moisture Content (%) (g H2O/g wet solid),[7]; 47% RH,12.823%
same,rate of moisture absorption,[7]; dry potassium clavulanate exposed to about 50% relative humidity,approximately 1.44 % per hour
same,moisture content on a dry weight basis,[7]; exposed to about 35% or less of relative humidity for 96 hr,< 1%
same,degradation,[1]; storage at 30° C. for 69 hr (storage 1),up to 45%
same,degradation,[1]; storage at 45° C. for 75 hr (storage 2),≤ 60%
same,AUC(0-t),[8]; [10],684 ng·h/mL
same,MRT inf,[8]; [10],39 min
same,clearance,[8]; [10],96.7 mL/min
same,bioavailability,"[8]; IV aqueous solution, dose 4.2 mg, male beagle dogs, read-out: F (bioavailability)",100%
same,half-life,"[8]; IV aqueous solution, dose 4.2 mg, male beagle dogs, read-out: t1/2 (converted)",31.2 min
same,Vd,"[8]; male, beagle, IV aqueous solution, dose 4.2 mg, male beagle dogs, read-out: Vd",4.4 L
same,Vd,"[8]; male, beagle, IV aqueous solution, dose 4.2 mg, male beagle dogs, read-out: Vss",3.8 L
same,bioavailability,"[8]; male, beagle, po, given orally, fasted animals, read-out: average bioavailability",30 to 41%
same,half-life,"[8]; male, beagle dogs, read-out: apparent terminal half-life (converted)",30 min
